Source: patent US20230047208A1, “RNA Splicing Modulation” (The General Hospital Corporation, priority 2020, published 2023)

How the values were obtained:
CPSF7 minigene, Exon X = assay: CPSF7 minigene splicing assay, RT-PCR; assay type: cell-based; conditions: mutated CPSF7 minigene
Description: FIGS. 3E-3G Upper row: The length of the exon triplets cloned into minigenes constructs are shown. The flanking sequences of the 5′ splice sites of Exon X are shown in LOGO plots. The height of each nucleotide was estimated using in silico saturated mutagenesis, with the corresponding closely matched CNN Motifs indicated below the plots. […] Middle row: Splicing changes for Exon X in both wildtype and mutated exon triplets, predicted by the CNN model (left) and measured by RT-PCR of the minigene (right). The RT-PCR experiments were performed in duplicate and independently repeated three times for each minigene to make the bar plots (two-tailed, unpaired Student's t test). Bottom row: Example of splicing changes induced by treatment with Compound (I) in the minigene splicing assays. The percentage for Exon X inclusion is indicated beneath each lane, from treated and untreated conditions in both wildtype and mutated minigenes. […] The statistical significance, as shown in FIGS. 3E-3G, was determined via two-tailed, unpaired Student's test: *p<0.05; **p<0.01; ***p<0.001. […]
Wild-type and mutant double-stranded DNA (dsDNA) fragments, selected based on low nucleotide length and exon-skipping probability, were ordered through GENEWIZ (FragmentGENE). […] Concentrations were determined using a nanodrop spectrometer.

ELP1 minigene = assay: Minigene splicing in transfected HEK293T cells, RT-PCR exon inclusion; assay type: cell-based, human
Method: HEK293T cells were seeded in 6-well culture plates at 1.20×10^6 cells/well in D-MEM, 10% FBS, without antibiotics and incubated overnight to reach approximately 90% confluence. Transfection was performed with FuGENE® HD Transfection Reagent (E2311, Promega) using the FuGENE-DNA ratio at 3.5:1 and following manufacturer protocol. After 4 hours of incubation at 37° C., cells were plated at a density of 3×10^4 cells/well in a poly-L-lysine coated 96-well plate for the dual luciferase minigene assay or at the density of 8.5×10^5 cells/well into 6-well plates for minigene transfection. […]
After treatment, the cells were collected and RNA was extracted with QIAzol Lysis Reagent (79306, Qiagen) following the manufacturer's instructions. The yields of the total RNA for each sample were determined using a Nanodrop ND-1000 spectrophotometer. […]
Ratios between isoforms having the middle exon included or excluded were obtained using the integrated density value (IDV) for each correspondent band, and then assessed using Alpha 2000™ Image Analyzer and quantified by ImageJ software. The level of exon inclusion was calculated as previously described^4, where the relative density value of the band represents inclusion and is expressed as a percentage. Validation of the semi-quantitative RT-PCR method for the measurement of exon inclusion was performed using RT-qPCR^4. […]

Clc1nc(NCc2ccncc2)c2cc[nH]c2n1 [Compound (I), 2-chloro-N-(pyridin-4-ylmethyl)-7H-pyrrolo[2,3-d]pyrimidin-4-amine]
Exon X splicing response confirmed by RT-PCR (CPSF7 minigene, Exon X): inclusion | ELP1 splicing in a minigene system (ELP1 minigene): corrected splicing of ELP1
